Experimental data published in US20050250801A1, “Method of treating cancer with azaspirane compositions” (priority 2003, published 2005).
Read-outs that look alike come from different tables or passages of the source.

Tests used:
Assay type in all cases: cell-based
Various Tumor Cell Lines = assay: NCI in vitro SRB tumor cell line assay, panel summary
Experimental: (§1) An in vitro assay which tested the ability of N,N,-diethyl-8,8-dipropyl-2-azaspiro[4,5]decane-2-propanamine dimaleate (Compound 1) to inhibit the growth of known cancer cell lines was performed by the National Cancer Institute in accordance with standard procedures. See: Lin, Z. X., Hoult, J. R., and Raman, A. Sulphorhodamine B assay for measuring proliferation of a pigmented melanocyte cell line and its application to the evaluation of crude drugs used in the treatment of vitiligo. J Ethnopharmacol. 66: 141-150, 1999. Briefly, selected tumor cell lines were cultured in media containing five different concentrations of Compound 1. After 48 hours of continuous exposure, a sulforhodamine B (SRB) assay was used to estimate cell viability or growth via optical measurements.
(§2) From the measurements, the following values were determined: 1) the concentration of Compound 1 at which a tumor cell growth inhibition of 50% (relative to control) occurs (GI50), 2) the concentration of Compound 1 at which no growth occurs (total growth inhibition, TGI), and 3) the concentration of Compound 1 at which the […] (LC 50). […] FIG. 6 illustrates, graphically, tumor cell growth as a function of Compound 1 concentration of the scanned tumor cell lines.

HUVEC cells = assay: Inhibition of HUVEC proliferation (WST-1, Example 2); settings: Homo sapiens
786-0 = assay: NCI in vitro SRB assay, Renal Cancer; settings: for CC50 / GI50: Homo sapiens
Experimental: as §1, §2

TK-10 = assay: NCI in vitro SRB assay, Renal Cancer; settings: for CC50 / GI50: Homo sapiens
Experimental: as §1, §2

SN12C = assay: NCI in vitro SRB assay, Renal Cancer; settings: for GI50 / CC50: Homo sapiens
Experimental: as §1, §2

RXF 393 = assay: NCI in vitro SRB assay, Renal Cancer; settings: for CC50 / GI50: Homo sapiens
Experimental: as §1, §2

[1] = RXF 393, Log10 conc -4.0 Moles/L
[2] = RXF 393, Log10 conc -5.0 Moles/L

In the case of `CCCC1(CCC)CCC2(CCN(CCCN(CC)CC)C2)CC1.O=C(O)/C=C\C(=O)O.O=C(O)/C=C\C(=O)O` [Compound 1, N,N,-diethyl-8,8-dipropyl-2-azaspiro[4,5]decane-2-propanamine dimaleate], the “Log10 GI50, MG_MID” value (Various Tumor Cell Lines; all cell lines of Table 2) is reported as −5.93, the “Log10 TGI, Delta” value (Various Tumor Cell Lines; all cell lines of Table 2) is reported as 1.18 and the “Log10 TGI, MG_MID” value (Various Tumor Cell Lines; all cell lines of Table 2) is reported as −5.45. The “Log10 TGI, Range” value (Various Tumor Cell Lines; all cell lines of Table 2) was 2.62, the CC50 (Various Tumor Cell Lines; read-out: Log10 LC50, MG_MID (converted)) was 8.71 µM and the IC50 (HUVEC cells) was 1.25 to 2.5 µM. For the same compound, the “Log10 TGI” value (786-0; 786-0) was −5.48, the TGI (786-0; 786-0) was 3.33 µM and the “Mean Optical Densities” value (786-0; 786-0, Log10 conc -4.0 Moles/L) was 0.132. The “Percent Growth” value (786-0; 786-0, Log10 conc -4.0 Moles/L) was −64%, the “Mean Optical Densities” value (786-0; 786-0, Log10 conc -5.0 Moles/L) was 0.121 and the “Percent Growth” value (786-0; 786-0, Log10 conc -5.0 Moles/L) was −67%. For the same compound, the “Mean Optical Densities” value (786-0; 786-0, Log10 conc -6.0 Moles/L) was 0.934, the “Percent Growth” value (786-0; 786-0, Log10 conc -6.0 Moles/L) was 73% and the “Mean Optical Densities” value (786-0; 786-0, Log10 conc -7.0 Moles/L) was 1.091. For the same compound, the “Percent Growth” value (786-0; 786-0, Log10 conc -7.0 Moles/L) was 94%, the “Mean Optical Densities” value (786-0; 786-0, Log10 conc -8.0 Moles/L) was 1.111 and the “Percent Growth” value (786-0; 786-0, Log10 conc -8.0 Moles/L) was 96%. For the same compound, the CC50 (786-0; 786-0, read-out: LC50) was 7.57 µM, the CC50 (786-0; 786-0, read-out: Log10 LC50 (converted)) was 7.59 µM and the GI50 (786-0; 786-0, read-out: GI50) was 1.47 µM. The GI50 (786-0; 786-0, read-out: Log10 GI50 (converted)) was 1.48 µM, the CC50 (TK-10; TK-10, read-out: LC50) was 5.52 µM and the CC50 (TK-10; TK-10, read-out: Log10 LC50 (converted)) was 5.5 µM. For the same compound, the GI50 (TK-10; TK-10, read-out: GI50) was 1.27 µM, the GI50 (TK-10; TK-10, read-out: Log10 GI50 (converted)) was 1.26 µM and the “Log10 TGI” value (TK-10; TK-10) was −5.58. The TGI (TK-10; TK-10) was 2.65 µM, the “Mean Optical Densities” value (TK-10; TK-10, Log10 conc -4.0 Moles/L) was 0.101 and the “Percent Growth” value (TK-10; TK-10, Log10 conc -4.0 Moles/L) was −89%. For the same compound, the “Mean Optical Densities” value (TK-10; TK-10, Log10 conc -5.0 Moles/L) was 0.087, the “Percent Growth” value (TK-10; TK-10, Log10 conc -5.0 Moles/L) was −90% and the “Mean Optical Densities” value (TK-10; TK-10, Log10 conc -6.0 Moles/L) was 1.283. For the same compound, the “Percent Growth” value (TK-10; TK-10, Log10 conc -6.0 Moles/L) was 66%, the “Mean Optical Densities” value (TK-10; TK-10, Log10 conc -7.0 Moles/L) was 1.389 and the “Percent Growth” value (TK-10; TK-10, Log10 conc -7.0 Moles/L) was 85%. For the same compound, the “Mean Optical Densities” value (TK-10; TK-10, Log10 conc -8.0 Moles/L) was 1.449, the “Percent Growth” value (TK-10; TK-10, Log10 conc -8.0 Moles/L) was 96% and the “Log10 TGI” value (SN12C) was −5.55. For the same compound, the TGI (SN12C) was 2.82 µM, the GI50 (SN12C; read-out: GI50) was 1.29 µM and the CC50 (SN12C; read-out: LC50) was 6.17 µM. The GI50 (SN12C; read-out: Log10 GI50 (converted)) was 1.29 µM, the CC50 (SN12C; read-out: Log10 LC50 (converted)) was 6.17 µM and the “Mean Optical Densities” value (SN12C; Log10 conc -4.0 Moles/L) was 0.036. For the same compound, the “Percent Growth” value (SN12C; Log10 conc -4.0 Moles/L) was −90%, the “Mean Optical Densities” value (SN12C; Log10 conc -5.0 Moles/L) was 0.069 and the “Percent Growth” value (SN12C; Log10 conc -5.0 Moles/L) was −81%. For the same compound, the “Mean Optical Densities” value (SN12C; Log10 conc -6.0 Moles/L) was 0.668, the “Percent Growth” value (SN12C; Log10 conc -6.0 Moles/L) was 66% and the “Mean Optical Densities” value (SN12C; Log10 conc -7.0 Moles/L) was 0.701. For the same compound, the “Percent Growth” value (SN12C; Log10 conc -7.0 Moles/L) was 73%, the “Mean Optical Densities” value (SN12C; Log10 conc -8.0 Moles/L) was 0.717 and the “Percent Growth” value (SN12C; Log10 conc -8.0 Moles/L) was 76%. For the same compound, the CC50 (RXF 393; RXF 393, read-out: LC50) was 7.1 µM, the CC50 (RXF 393; RXF 393, read-out: Log10 LC50 (converted)) was 7.08 µM and the GI50 (RXF 393; RXF 393, read-out: GI50) was 1.64 µM. For the same compound, the GI50 (RXF 393; RXF 393, read-out: Log10 GI50 (converted)) was 1.62 µM, the “Log10 TGI” value (RXF 393; RXF 393) was −5.47 and the TGI (RXF 393; RXF 393) was 3.41 µM. For the same compound, the “Mean Optical Densities” value (RXF 393; [1]) was 0.083, the “Percent Growth” value (RXF 393; [1]) was −74% and the “Mean Optical Densities” value (RXF 393; [2]) was 0.086. The “Percent Growth” value (RXF 393; [2]) was −73% and the “Mean Optical Densities” value (RXF 393; RXF 393, Log10 conc -6.0 Moles/L) was 0.943.
